Literature values in US11304900B1, “Transparent colloidal vitamin supplement blend” (Quicksilver Scientific, Inc., priority 2017, dated 2022).
Like-named read-outs stand apart in the source and are kept apart here.

What was measured:
[1] = not given; remark: listed apart in the source
[2] = in vivo

change in serum levels ([2]; iv) | change in blood serum magnesium concentration ([2]; po) | SMILES | mean peak plasma level (IV administration of 50 g/day) [mg/dL] | increase of plasma concentration (daily intake increased from 200 mg/day to 2,500 mg/day) [%] | highest blood serum level observed (oral administration of pharmacological doses) [mg/dL] | plasma concentration (oral daily intake 200 mg/day) [mg/dL] | plasma concentration (oral daily intake 2,500 mg/day) [mg/dL] | blood serum concentration at which antiviral effect has been demonstrated [1] [mg/dL]
– | – | O=C1O[C@H]([C@@H](O)CO)C(O)=C1O [Vitamin C, ascorbic acid] | 80 | 25 | 9.3 | 1.2 | 1.5 | 10 to 15
double or triple | little or no change | [Mg+2] [magnesium] | – | – | – | – | – | –
